In series [1] the target is T1, PARP-1 (Homo sapiens, UniProt P09874).
T1 construct: endogenous in cells; host or cells: MSTO-211H cells
In words: Western blot of poly(ADP-ribose) (PAR) and PARP-1 in MSTO-211H cells. Type of series: cell-based. To be noted: 5 µM, 72 h. As for the experimental part:
The effect of the most promising complex 6 on PARP-1 activity was further evaluated. MSTO-211H cells were treated with equimolar concentrations (5 µM) of 6, CDDP, and 3-ABA for 72 h. The two last compounds were used either alone or in combination in a 1:1 molar ratio. Western blot analysis evaluated the expression of poly(ADP-ribose) (PAR), which is the product of PARP-1 activity (Figure 4A).
(§1) For protein analysis, cells were extracted with 1% NP-40 lysis buffer (50 mM Tris-HCl pH 8.5 containing 1% NP-40, 150 mM NaCl, 10 mM EDTA, 10 mM NaF, 10 mM Na4P2O7, and 0.4 mM Na3VO4) with freshly added protease inhibitors (10 μg mL^−1 leupeptin, 4 μg mL^−1 pepstatin, and 0.1 U mL^−1 aprotinin). Lysates were centrifuged at 13,000× g for 10 min at 4 °C and the supernatants were collected and assayed for protein concentration with the Bradford assay method (Bio-Rad). Proteins were separated by SDS-PAGE (sodium dodecyl sulfate polyacrylamide gel electrophoresis) under reducing conditions. Following SDS-PAGE, proteins were transferred to nitrocellulose, reacted with specific antibodies, and then detected with peroxidase-conjugate secondary antibodies and chemioluminescent ECL reagent. Digital images were taken with the Bio-Rad ChemiDocTM Touch Imaging System and quantified using Bio-Rad Image Lab 5.2.1.
Figure 4 (A) Representative Western blot showing poly(ADP-ribose) (PAR) and PARP-1 expression following 72 h MSTO-211H cell treatment with diluent (Ctrl) or 5 µM concentrations of cisplatin (CDDP), 6, CDDP + 3-ABA combination (1:1 ratio), and 3-ABA alone. HSC70 protein was used as loading control. (B) Immunocytochemistry was used to capture representative γH2AX focus images following 72 h MSTO-211H cell treatment with diluent (Ctrl) or 5 µM of complex 6.

In series [2] the test system is BR95 (epithelioid) malignant pleural mesothelioma cells. In words: Cell viability assay (Trypan blue dye exclusion), BR95. The format is cell-based, human. The settings on record: 72 h treatment. As for the experimental part: Complexes 6–9 were tested on a panel of human MPM cell lines together with CDDP and SAA1, added for comparison (Table 1). The half-maximal inhibitory concentration, IC50, was determined on MSTO-211H (biphasic phenotype), REN (epithelioid), BR95 (epithelioid), and MM98 (sarcomatoid) cancer cell lines to identify the most promising Pt(IV) conjugate to be further investigated. To determine the number of viable cells, the use of the dye exclusion assay was preferred to the colorimetric assay because of the heterogeneity in the energy metabolism between the different MPM cell lines. This may justify minor differences with respect to the previously published IC50 for CDDP [40].
Cells were seeded at a density of 10 × 10^4 cells per well in 6-well plates in RPMI medium supplemented with 10% fetal bovine serum (FBS), 100 μg mL^−1 streptomycin, and 10 μg mL^−1 penicillin and incubated overnight at 37 °C in a humidified environment containing 5% CO2 to allow adherence. Cisplatin was dissolved in 0.9% w/v aqueous NaCl brought to pH = 3 with HCl (final stock concentration 1 mM). The Pt(IV) complexes were dissolved in DMSO (final stock concentration 5 mM); the resulting solutions were microfiltered (0.45 μm) and their Pt content was checked by ICP-MS (see Section 3.5.2). These mother solutions were diluted in complete medium to the required concentration range.
Following 72 h of treatment with the diluent of the compound (Ctrl) or different doses of the Pt compounds, cells were trypsinized and stained with Trypan blue. The number of cells considered viable (unstained cells) was counted in a Bürker haemocytometer within 5 min after staining.

Series [3] can be described thus: Reduction with ascorbic acid followed by RP-HPLC. Type of series: physicochemical. The settings on record: ascorbic acid 10 mM, HEPES 50 mM pH 7.4, 37 °C, cosolvent DMF or MeOH, 24 h. As for the experimental part: To verify the activation by reduction mechanism, complexes 6–9 were challenged with the model bioreductant ascorbic acid (AA, 10 mM in water) in HEPES buffer (HEPES = 4-(2-hydroxyethyl)-1-piperazineethanesulfonic acid, 50 mM, pH = 7.4) at 37 °C. The reaction was monitored by following the RP-HPLC peaks over 24 h. The different solubility and retention times required different experimental conditions for the different compounds (cosolvent DMF or MeOH was necessary to maintain the Pt compounds in solution, >5% v/v). For these reasons, complete reduction for 8 and 9 was observed after 8 h, whereas for 6 and 7, the >85% peak area disappeared after 24 h only. […] Complexes 6–9, having very similar coordination skeletons, can be expected to behave in the same way.
The reduction of complexes with ascorbic acid was followed by monitoring of the reduction of the area of their chromatographic peaks via RP-HPLC over 24 h at 37 °C. The Pt compounds were dissolved in methanol or DMF (up to 20 mM) and diluted with different quantities of 50 mM 4-(2-hydroxyethyl)piperazine-1-ethanesulfonic acid (HEPES) buffer (pH = […]) containing 10 mM ascorbic acid. The mixtures were microfiltered to eliminate the precipitated complex. The chromatographic conditions were similar to those for the determination of lipophilicity (see Section 3.4), with different percentages of methanol depending on the complex.

Series [4] relates to PARP-1. In words: Western blot analysis of PARP-1 expression in MSTO-211H cells. Type of series: cell-based, human. To be noted: 72 h, equitoxic (IC50) concentrations, whole cell lysate. As for the experimental part: It is necessary to verify how much the presence of the bulky Fmoc group might affect the recognition of the PARP catalytic domain. It is important to recall that all PARPis designed as analogues of nicotinamide must contain a primary or secondary amide. Indeed, this is the case of 6 [27]. The effects of compounds 6–9 on the expression of PARP-1 were evaluated by treating MSTO-211H cells for 72 h with equitoxic (at their IC50) concentrations of complexes, followed by Western blot analysis of whole cell lysate. […] First of all, the higher cellular uptake of 6 and 7 increases the intracellular concentration of the Pt metabolite and, in particular, of the ligands, potentially PARPis (synergistic cellular accumulation). […]
as §1, with “Lysates were centrifuged at 13,000× g for 10 min at 4 °C and the supernatants were collected and assayed for protein concentration with the Bradford assay method (Bio-Rad). Proteins were separated by SDS-PAGE (sodium dodecyl sulfate polyacrylamide gel electrophoresis) under reducing conditions.” left out, “5.2.1. […]” for “5.2.1.”

Some results are limits rather than exact numbers.

T1 sequence (P09874 whole entry): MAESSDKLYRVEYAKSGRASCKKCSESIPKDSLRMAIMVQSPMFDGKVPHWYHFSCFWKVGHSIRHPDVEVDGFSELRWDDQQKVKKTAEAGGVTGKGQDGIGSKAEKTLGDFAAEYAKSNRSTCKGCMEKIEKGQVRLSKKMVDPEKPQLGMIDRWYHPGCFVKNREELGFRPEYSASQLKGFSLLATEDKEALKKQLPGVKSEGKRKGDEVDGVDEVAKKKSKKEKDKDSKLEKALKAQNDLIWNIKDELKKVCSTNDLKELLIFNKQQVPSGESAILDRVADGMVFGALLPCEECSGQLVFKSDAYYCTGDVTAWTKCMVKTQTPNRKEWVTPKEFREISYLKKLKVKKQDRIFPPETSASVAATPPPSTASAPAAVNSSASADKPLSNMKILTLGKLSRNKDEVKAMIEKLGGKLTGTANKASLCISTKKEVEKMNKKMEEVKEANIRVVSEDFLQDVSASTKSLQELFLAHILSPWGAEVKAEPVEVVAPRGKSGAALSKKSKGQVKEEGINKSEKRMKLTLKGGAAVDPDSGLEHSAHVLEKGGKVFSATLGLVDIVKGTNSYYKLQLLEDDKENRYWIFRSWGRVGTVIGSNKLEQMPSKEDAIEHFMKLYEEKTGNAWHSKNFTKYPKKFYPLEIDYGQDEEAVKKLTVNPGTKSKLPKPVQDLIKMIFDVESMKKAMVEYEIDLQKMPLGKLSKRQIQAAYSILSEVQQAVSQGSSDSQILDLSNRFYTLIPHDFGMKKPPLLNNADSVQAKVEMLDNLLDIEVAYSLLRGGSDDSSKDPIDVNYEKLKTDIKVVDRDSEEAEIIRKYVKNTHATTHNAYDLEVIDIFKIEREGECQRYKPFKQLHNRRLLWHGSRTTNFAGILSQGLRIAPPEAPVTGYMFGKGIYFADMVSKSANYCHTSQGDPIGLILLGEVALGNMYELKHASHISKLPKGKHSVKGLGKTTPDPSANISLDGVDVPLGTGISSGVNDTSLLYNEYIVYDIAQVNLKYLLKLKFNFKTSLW

Take `CC(=O)[O][Pt]([NH2])([NH2])([Cl])([Cl])[O]C(=O)CCNC(=O)c1cccc(NC(=O)OCC2c3ccccc3-c3ccccc32)c1` [Compound 6, (OC-6-44)-Acetato[3-(3-(fmoc-amino)-benzamido)-propanoato]-diammine-dichlorido-platinum(IV)]: on PARP-1 [1], the PARP-1 cleavage result is on record as “complex 6 alone did” and the “PARP-1 parylation (PAR expression)” value was “No self-parylation of PARP-1”. Also, the “ratio IC50 (cisplatin)/IC50 (Pt(IV) complex), BR95” value in series [2] was 2.6. For the same compound, in series [2] (mean ± sd), the IC50 came to 830 ± 40 nM. Also, the “peak area disappeared after 24 h” value in series [3] was greater than 85%. In the series on PARP-1 [4], the PARP-1 expression result is “lower expression of PARP-1 in the series”.

The record behind these values is publication PMC8402032, “Unsymmetric Cisplatin-Based Pt(IV) Conjugates Containing a PARP-1 Inhibitor Pharmacophore Tested on Malignant Pleural Mesothelioma Cell Lines” (Molecules, 2021).
